Legend:
[1] = test system: mice, step-down latency; assay: Sedation assessment; type: in vivo, mouse; details: 3 mg/kg i.p.
Description: The degree of sedation was measured by the latency for a mouse to completely step down from a slightly (3 cm) raised plastic platform (11×8 cm) by reference to a previous report (Horan et al. 1991). The mouse was placed on the platform 15 min after receiving i.p. Injection of the tested drug. The latency (in sec) for the mouse to step down the platform with all four paws was recorded. The baseline latency of each mouse before drug treatment was measured and, if longer than 15 sec, the mouse was discarded from the study. A cut-off time of 60 sec was taken as the maximal sedative effect. The percentage of sedation was calculated by the formula: sedation %=(test latency−baseline latency)/(60−baseline latency)×100%.

[2] = test system: mice, motor coordination; assay: Rotarod test; type: in vivo, mouse; details: 3 mg/kg, 15 min after treatment
Description: The motor coordinating activity of the mouse was measured by its performance on a rotarod in the sdi rotor-rodtm system (San Diego Instruments, San Diego, Calif.). The mouse was trained four times a day for 3 days until it could stay on the rotating drum at a rotating speed of 24 rpm for at least 120 sec. Then, the mouse was subjecting to the rotarod test at the rotating speed accelerating gradually from 0 to 30 rpm, and the latency to fall from the rotating drum was recorded. The cut-off time for the latency to fall was 300 sec. Animals were treated with the tested drug or vehicle for 15 min before receiving the test.

With `COc1ccc(-n2nc3c4ccc(OC)cc4[nH]cc-3c2=O)cc1` [Compound 6, 7-Methoxy-2-(4-methoxyphenyl)-2,5-dihydro-3H-pyrazolo[4,3-c]quinolin-3-one] as the compound, how does the sedation [1] read?
Its sedation is “neither displayed any significant sedation”.

What about the “motor coordination in the rotarod test” value [2] of the same compound?
The value was “did not affect”.
